According to paper PMC12525602, “Identification of Selective α-Glucosidase Inhibitors via Virtual Screening with Machine Learning” (Molecules, 2025):
Read-outs that look alike come from different tables or passages of the source.

Tests used:
α-glucosidase [1] = molecular target: α-glucosidase; design: method as in ref 14 (Lim et al. 2022); settings: ref 14 (Lim et al. 2022); cited from earlier work
α-amylase [2] = molecular target: α-amylase; design: method as in ref 14 (Lim et al. 2022); settings: ref 14 (Lim et al. 2022); cited from earlier work
α-amylase [3] = molecular target: T1, α-amylase (Sus scrofa, UniProt P00690); test: In vitro α-amylase activity assay (G3-CNP, absorbance 405 nm); assay type: biochemical, porcine; design: inhibition of α-amylase: dose or concentration left out as unconfirmed; settings: for inhibition of α-amylase: […] µM
T1 construct: α-amylase isolated from porcine pancreas; purchased Sigma-Aldrich Co. (St. Louis, MI, USA); host or cells: porcine pancreas
T1 sequence (P00690 16-511): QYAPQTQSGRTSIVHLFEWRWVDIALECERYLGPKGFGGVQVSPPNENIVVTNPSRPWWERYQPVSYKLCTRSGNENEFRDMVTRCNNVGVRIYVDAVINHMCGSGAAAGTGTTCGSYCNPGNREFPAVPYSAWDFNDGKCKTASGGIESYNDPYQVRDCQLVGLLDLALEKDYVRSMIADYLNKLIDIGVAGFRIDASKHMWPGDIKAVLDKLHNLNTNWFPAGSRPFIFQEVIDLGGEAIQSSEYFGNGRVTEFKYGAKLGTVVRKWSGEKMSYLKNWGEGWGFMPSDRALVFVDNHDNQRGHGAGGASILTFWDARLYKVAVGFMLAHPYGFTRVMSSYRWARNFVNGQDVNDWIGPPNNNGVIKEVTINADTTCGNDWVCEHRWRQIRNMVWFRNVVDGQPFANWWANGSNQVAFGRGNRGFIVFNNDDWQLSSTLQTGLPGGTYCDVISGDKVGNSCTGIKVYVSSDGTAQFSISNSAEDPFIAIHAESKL
Procedure: (§1) The inhibitors used in this study were purchased from the ChemDiv website. Unless otherwise stated, all other reagents used in this experiment were analytically pure reagents purchased from Sigma-Aldrich Co. (St. Louis, MI, USA).
The in vitro α-amylase activity assay was determined spectrophotometrically as previously described with only minor modifications. A phosphate-buffer solution at pH 6.8 was configured to obtain α-amylase 5 U/mL and 2-chloro-4-nitrophenyl α-D-maltotrioside (G3-CNP) 0.6 mM. […] Gradient dilution with phosphate-buffer solution was performed to obtain sample solutions of different concentrations.
(§2) The IC50 values of the tested compounds were calculated using nonlinear fitting (logit method).

α-glucosidase [4] = molecular target: T2, α-glucosidase (Saccharomyces cerevisiae, UniProt P53341); test: biochemical; assay type: biochemical
T2 construct: purchased Sigma-Aldrich Co. (St. Louis, MI, USA)
Procedure: To further investigate the inhibition kinetics of the candidate compounds, α-glucosidase activity was determined at different substrate concentrations. The Lineweaver-Burk expression method in Equation (1) was used to test the reaction of a series of compounds with the substrate pNαGP, and the values of maximum velocity (Vmax) and Michaelis-Menten constant (Km) were calculated.(1) 1/v=Km/Vmax1/[S]+1/Vmax where Vmax and Km are the maximum velocity of the enzyme and the Michaelis-Menten constant in the absence of inhibitor, respectively. [S] is the concentration of substrate and inhibitor.(2) Slope=Km/Vmax+Km/Vmax·KiI where v is the initial reaction rate, Vmax is the maximum initial reaction rate, [I] is the concentration of […], and Km is the Michaelis-Menten constant.

α-glucosidase [5] = molecular target: T2, α-glucosidase; test: Fluorescence quenching experiment (Stern-Volmer); assay type: binding; settings: for Kd: Ka (binding constant); for Kq (bimolecular quenching constant): given as number×10 with exponent 12
Procedure: The fluorescence quenching experiment was modified somewhat based on previous studies. Fluorescence was determined by titrating α-glucosidase (1.0 mL, 2 U/mL) with different concentrations of inhibited solutions (1.0 mL, 0–200 mM) and left to equilibrate for 5 min. […] Fluorescence burst analysis was performed based on the Stern-Volmer (3) equation.(3) F0/F=1+Kqτ0Q=1+KsvQ
F and F0 are the fluorescence intensities with and without inhibitor, respectively, Ksv is the Stern-Volmer bursting constant, Kq is the bimolecular bursting constant, and [Q] is the concentration of inhibitor.
When the bursting mode conforms to static bursting, the binding constant Ka and the number of binding sites for each enzyme can be calculated from Equation (4).(4) logF0−F/F=logKa+nlogQ
Ka is the binding constant and n is the number of binding sites.
The thermodynamic parameters ∆H, ∆S, and ∆G denote the change in heat, entropy, and free energy, respectively.

α-glucosidase [6] = molecular target: T2, α-glucosidase; test: In vitro α-glucosidase activity assay (pNαGP, absorbance 405 nm); assay type: biochemical; settings: for inhibition at 250 µM: read-out: inhibition of α-glucosidase
Procedure: as §1
The in vitro α-glucosidase activity assay was determined spectrophotometrically as previously described with only minor modifications. A phosphate-buffer solution at pH 6.8 was configured to obtain 0.5 U/mL of α-glucosidase and 0.6 mM of […] (pNαGP). […] Gradient dilution with phosphate-buffer solution was performed to obtain sample solutions of different concentrations. First, different concentrations of compounds (10 µL), enzyme solution (40 µL) and potassium phosphate buffer (100 µL) were pre-incubated in a 96-well plate for 10 min at 37 °C. Then, 50 µL of substrate (pNαGP, 0.6 mM) was added to each microtiter well and incubated for 20 min at 37 °C, and the absorbance at 405 nm was measured to detect the change in enzyme activity.
The enzyme inhibitory activity of the tested compounds was calculated as follows: α−glucosidase inhibition rate%=Abs control−Abs sample/Abs control×100
as §2

α-glucosidase [7] = molecular target: T2, α-glucosidase; test: Synchronous fluorescence spectroscopy (RSQF); assay type: binding
Procedure: Changes in the microenvironment of tyrosine (Tyr) and tryptophan (Trp) residue fluorophores were detected simultaneously. The excitation and emission wavelength intervals were set to 15 nm and 60 nm, respectively, and the synchronized fluorescence spectra from 260 to 320 nm were determined. The synchronized fluorescence burst ratio (RSFQ) was calculated as follows:(7) RSQF=1−F/F0

C57BL/6J mice = test: In vivo starch digestion inhibition experiment (postprandial blood glucose); settings: normal mice, 10 mg/kg by gavage, 2 g/kg starch, 0-120 min; p < 0.001 versus controls
Source text: After the in vitro validation, in order to further characterize the effect of the inhibitor on postprandial glycemic control, we performed in vivo characterization by gavage in mice. Eight-week-old male C57BL/6J mice (purchased from Beijing Huafukang Laboratory Animals, Beijing, China) were used for the experiments. The animal experimental procedures were approved by the Ethics Committee on Laboratory Animal Management and Welfare of Beijing Huafuqian Times Technology Co. Ltd. (Ethical Review Approval No. HYSD2023-04), and local and national ethical guidelines were strictly observed. All mice were placed in a controlled environment with a temperature of 25 °C, relative humidity of 60%, and a light/dark cycle of 12/12 h. Following overnight fasting, gastric intubation was performed on mice in the control group, acarbose group, […] group, […] group, […] group, and […] group. The control group received saline infusion to eliminate confounding factors during administration. […] The remaining groups each received a corresponding concentration (10 mg/kg) of the test compound dissolved in saline solution to evaluate inhibitor efficacy. 2 g/kg of starch was given after 5 min, and the […] at 0 min, 10 min, 20 min, 30 min, 40 min, 60 min, 90 min and 120 min.

α-glucosidase [8] = molecular target: α-glucosidase; design: method as in ref 15 (Sun et al. 2017); settings: ref 15 (Sun et al. 2017); cited from earlier work
α-amylase [9] = molecular target: α-amylase; design: method as in ref 15 (Sun et al. 2017); settings: ref 15 (Sun et al. 2017); cited from earlier work

T2 sequence (P53341 whole entry): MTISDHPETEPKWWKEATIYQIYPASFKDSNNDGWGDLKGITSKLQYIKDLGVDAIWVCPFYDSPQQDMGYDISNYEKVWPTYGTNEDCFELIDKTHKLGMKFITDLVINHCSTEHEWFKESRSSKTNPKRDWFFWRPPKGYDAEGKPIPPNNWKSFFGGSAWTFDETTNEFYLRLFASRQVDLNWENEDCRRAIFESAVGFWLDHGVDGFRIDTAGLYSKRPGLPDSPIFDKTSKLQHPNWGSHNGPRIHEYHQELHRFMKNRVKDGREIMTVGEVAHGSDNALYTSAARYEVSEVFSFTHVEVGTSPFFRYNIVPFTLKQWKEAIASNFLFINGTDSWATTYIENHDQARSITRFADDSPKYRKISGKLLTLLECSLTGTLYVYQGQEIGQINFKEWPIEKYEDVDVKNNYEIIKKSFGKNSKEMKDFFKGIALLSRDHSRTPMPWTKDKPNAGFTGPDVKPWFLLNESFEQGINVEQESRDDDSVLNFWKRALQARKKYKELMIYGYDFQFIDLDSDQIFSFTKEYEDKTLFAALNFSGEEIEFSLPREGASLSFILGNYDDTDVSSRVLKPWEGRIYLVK

SMILES	IC50 (α-amylase [3]) [µM]	inhibition of α-amylase (α-amylase [3])	Type of inhibition (α-glucosidase [4])	Vmax (α-glucosidase [4]; [I] 7.5 μM)	Vmax (α-glucosidase [4]; [I] 15 μM)	Vmax (α-glucosidase [4]; [I] 30 μM)	Vmax (α-glucosidase [4]; [I] 50 μM)	Kd (α-glucosidase [5]; T 300.15 K) [µM]	Kd (α-glucosidase [5]; T 305.15 K) [µM]	Kd (α-glucosidase [5]; T 310.15 K) [µM]	Ksv (quenching constant) (α-glucosidase [5]; T 300.15 K)	n (number of binding sites) (α-glucosidase [5]; T 300.15 K)	Ksv (quenching constant) (α-glucosidase [5]; T 305.15 K)	n (number of binding sites) (α-glucosidase [5]; T 305.15 K)	Kq (bimolecular quenching constant) (α-glucosidase [5]; T 305.15 K)	Ksv (quenching constant) (α-glucosidase [5]; T 310.15 K)	n (number of binding sites) (α-glucosidase [5]; T 310.15 K)	Kq (bimolecular quenching constant) (α-glucosidase [5]; T 310.15 K)	IC50 (α-glucosidase [6]) [µM]	RSQF values, Trp (Δλ = 60 nm) versus Tyr (Δλ = 15 nm) (α-glucosidase [7])	further results
O=c1c(O)c(-c2ccc(O)c(O)c2)oc2ccccc12 [3′,4′-dihydroxyflavonol]	–	–	–	–	–	–	–	–	–	–	–	–	–	–	–	–	–	–	–	–	IC50 (α-glucosidase [1]): 34.3 µM; IC50 (α-amylase [2]): 119 µM
C[C@H]1O[C@H](O[C@H]2[C@H](O)[C@@H](O)[C@@H](O[C@H]3[C@H](O)[C@@H](O)C(O)O[C@@H]3CO)O[C@@H]2CO)[C@H](O)[C@@H](O)[C@@H]1N[C@H]1C=C(CO)[C@@H](O)[C@H](O)[C@H]1O (some centres unmarked) [Acarbose, acarbose, reference compound]	–	–	Mixed	–	–	–	–	–	–	–	0.01 ±0.01 104 /M	1.04	0.02 ±0.01 104 /M	0.98	0.02 ×10^12 (M·S)-1	–	–	–	–	very low	Vmax (α-glucosidase [4]; [I] […] μM): 5.92±0.06 ×10-1µM/min; Vmax (α-glucosidase [4]; [I] 500 μM): 6.18±0.04 ×10-1µM/min; Vmax (α-glucosidase [4]; [I] 1000 μM): 5.90±0.03 ×10-1µM/min; Vmax (α-glucosidase [4]; [I] 2000 μM): 2.42±0.06 ×10-1µM/min; Vmax (α-glucosidase [4]; [I] […]): 5.96±0.06 ×10-1µM/min; blood glucose area under the curve (AUC), total glycemic exposure (C57BL/6J mice): significantly reduced; Kq (bimolecular quenching constant) (α-glucosidase [5]; T 300.15 K): 0.01 ×10^12 (M·S)-1
O=C(/C=C/c1ccc(O)cc1)c1c(O)cc(O)cc1O [chalconaringenin]	–	–	–	–	–	–	–	–	–	–	–	–	–	–	–	–	–	–	–	–	IC50 (α-glucosidase [8]): 20 µM; IC50 (α-amylase [9]): > 100 µM

More lines, main results first:

IC50 (α-amylase [3]) [µM]	inhibition of α-amylase (α-amylase [3])	Type of inhibition (α-glucosidase [4])	Vmax (α-glucosidase [4]; [I] 7.5 μM)	Vmax (α-glucosidase [4]; [I] 15 μM)	Vmax (α-glucosidase [4]; [I] 30 μM)	Vmax (α-glucosidase [4]; [I] 50 μM)	Kd (α-glucosidase [5]; T 300.15 K) [µM]	Kd (α-glucosidase [5]; T 305.15 K) [µM]	Kd (α-glucosidase [5]; T 310.15 K) [µM]	Ksv (quenching constant) (α-glucosidase [5]; T 300.15 K)	n (number of binding sites) (α-glucosidase [5]; T 300.15 K)	Ksv (quenching constant) (α-glucosidase [5]; T 305.15 K)	n (number of binding sites) (α-glucosidase [5]; T 305.15 K)	Kq (bimolecular quenching constant) (α-glucosidase [5]; T 305.15 K)	Ksv (quenching constant) (α-glucosidase [5]; T 310.15 K)	n (number of binding sites) (α-glucosidase [5]; T 310.15 K)	Kq (bimolecular quenching constant) (α-glucosidase [5]; T 310.15 K)	IC50 (α-glucosidase [6]) [µM]	RSQF values, Trp (Δλ = 60 nm) versus Tyr (Δλ = 15 nm) (α-glucosidase [7])	SMILES	further results
> 500	minimal inhibition	Competitive	9.17±0.04 ×10-1µM/min	9.83±0.06 ×10-1µM/min	9.35±0.03 ×10-1µM/min	9.62±0.05 ×10-1µM/min	2.51	19.6	23.8	0.59 ±0.02 104 /M	1.16	0.42 ±0.04 104 /M	0.99	0.42 ×10^12 (M·S)-1	0.39 ±0.02 104 /M	0.79	0.39 ×10^12 (M·S)-1	74.7 ± 4.1	significantly higher	COc1ccc(-c2nn(-c3ccccc3)c(C)c2-c2cc(C#N)c(C#N)cc2O)cc1 [K802]	Vmax (α-glucosidase [4]; [I] 70 μM): 9.48±0.02 ×10-1µM/min; Kq (bimolecular quenching constant) (α-glucosidase [5]; T 300.15 K): 0.59 ×10^12 (M·S)-1; inhibition at 250 µM (α-glucosidase [6]): ~100%
> 500	minimal inhibition	Competitive	11.41±0.04 ×10-1µM/min	11.35±0.08 ×10-1µM/min	10.92±0.06 ×10-1µM/min	10.84±0.07 ×10-1µM/min	1.59	1.62	3.94	11.46 ±0.01 104 /M	1.17	7.99 ±0.01 104 /M	1.20	7.99 ×10^12 (M·S)-1	6.87 ±0.01 104 /M	1.14	6.87 ×10^12 (M·S)-1	66.3 ± 7.17	significantly higher	O=C1Nc2ccc(Br)cc2/C1=C\c1nc2ccccc2c(=O)n1-c1ccc(C(=O)O)cc1 [K413]	Ki (α-glucosidase [4]): 59.7 ± 10.6 µM; inhibition at 250 µM (α-glucosidase [6]): ~100%
> 500	minimal inhibition	Competitive	8.94±0.06 ×10-1µM/min	8.85±0.02 ×10-1µM/min	8.62±0.04 ×10-1µM/min	8.81±0.03 ×10-1µM/min	1.98	2.07	3.91	10.50 ±0.01 104 /M	1.15	7.67 ±0.01 104 /M	1.17	7.67 ×10^12 (M·S)-1	5.51 ±0.01 104 /M	1.15	5.51 ×10^12 (M·S)-1	67.8 ± 2.18	significantly higher	O=[N+]([O-])c1ccccc1C1Oc2ccccc2C2CC(c3ccccc3)=NN21 (centres unmarked) [K411]	Ki (α-glucosidase [4]): 61.3 ± 14.4 µM; Vmax (α-glucosidase [4]; [I] 70 μM): 8.43±0.04 ×10-1µM/min; inhibition at 250 µM (α-glucosidase [6]): ~100%
